In one assay the test system is LTB4 Synthesis. Kind of assay: Reverse Passive Arthus Reaction (pleurisy), LTB4 in pleural exudate. It is filed as in vivo, rat (male Lewis). To be noted: 10 mg/kg, p.o. The procedure:
3. Reverse Passive Arthus Reaction
A reverse passive Arthus reaction is induced in the pleural cavity of male Lewis rats (150-200 g; fasted overnight prior to use) by the intravenous administration of bovine serum albumin (BSA; 4 mg/0.2 ml) followed 30 minutes later by the injection of rabbit anti-BSA (1 mg/0.2 ml; lyophilized IgG fraction; Organon Teknika, West Chester, Pa.) into the right pleural space under halothane anesthesia. Drugs or vehicle (0.5% Tween-80) control are administered orally in a volume of 1 ml/100 g body weight at 1 hour prior to the anti-BSA. Animals are sacrificed at either the time of peak eicosanoid production (i.e. 5 minutes after anti-BSA for immunoreactive TxB2, 10 minutes for immunoreactive LTB4, 20 minutes for immunoreactive LTC4) or at the time of peak neutrophil infiltration (4 hours after anti-BSA) by CO2 inhalation. The pleural cavity is then exposed., the fluid exudate removed by gentle vacuum aspiration and the volume of exudate is recorded. For the determination of cellular infiltration, the pleural cavity is rinsed with 3 ml of 0.1% EDTA in sterile saline, and the recovered wash is pooled with the exudate. Cell number is determined on a model ZBI Coulter counter. For determination of eicosanoid production, undiluted pleural exudate is microfuged and the supernatant is extracted with ethanol (8-10 times volume). Extracts are either stored at -20° C., or are evaporated to dryness under a stream of N2 and reconstituted in radioimmunoassay (RIA) buffer.
Eicosanoids are quantitated by RIA according to the procedure specified by the RIA kit manufacturer (Advanced Magnetics, Cambridge, Mass.). Briefly, 100 μl of ^3 H-labeled eicosanoid and 100 μl of specific antibody are sequentially added to 100 μl of extracted pleural exudate in BGG-phosphate buffer which contains 0.01M phosphate, 0.1% bovine gamma globulin and 0.1% sodium azide at pH 7.0. Antibody-bound eicosanoid is separated from unbound eicosanoid by the addition of 750 μl of dextran (0.4%)-coated charcoal (Norit A) containing 0.1% sodium azide. The mixture is centrifuged at 2000 RPM at 5° C. for 15 minutes to pellet the charcoal and adsorbed unbound eicosanoid. Antibody-bound labeled eicosanoid is quantitated by counting in a liquid scintillation counter, and is correlated to concentration by a standard curve.

The test system of a further assay is Lipoxygenase. The assay can be described thus: Ex-Vivo Measurement of Lipoxygenase Inhibition in Orally Dosed Rats (LTB4). Set-up: species or system rat (male Sprague Dawley). To be noted: p.o., pretreatment period 6 hr. The protocol:
2. Ex-Vivo Measurement of Lipoxygenase Inhibition in Orally Dosed Rats
Male Sprague Dawley rats (Charles River) weighing between 180 g and 200 g were dosed orally with an invention compound (1-25 mg/kg, po) suspended in 0.5% Tween 80®. After an interval of 3 or 6 hours, the rats were anesthetized with metofane (n=4/group) and blood collected in heparinized tubes. White blood cell counts and differentials were made. One ml of blood from each animal was placed in a 5 ml plastic tube in a shaker bath at 37° C. A23187 at a final concentration of 10 μM was added to the blood and the blood vortexed and incubated for 15 min at […] with gentle shaking. Incubation was terminated by vortexing sample and centrifuging immediately at 1200 xG for 15 min at 4° C. The plasma was transferred to 15 ml plastic tubes each containing 8 ml of methanol to precipitate protein followed by vortexing. The samples were stored at -70 ° C. overnight and the next day the samples were centrifuged at 800 xG for 15 min to pellet the precipitate. The samples were dried in a Savant SpeedVac Concentrator Model SVC 200H and reconstituted to the original volume with cold RIA or ELISA buffer. The reconstituted samples were stored at -70° C. until assayed. The assay for LTB4 was performed according to the directions of the [^3 H]RIA kit or ELISA kit (Seragen). The total metabolite level in 1 ml of blood is calculated and reported as ng/10^6 neutrophils. Significance is determined by a one-way analysis of variance with LSD comparisons to control (p≤0.05).

Another assay addresses T1, 5-Lipoxygenase (Homo sapiens, UniProt P09917).
T1 construct: endogenous in cells; host or cells: human whole blood from male donors (results expressed per 10^6 neutrophils)
T1 sequence (P09917 1-674): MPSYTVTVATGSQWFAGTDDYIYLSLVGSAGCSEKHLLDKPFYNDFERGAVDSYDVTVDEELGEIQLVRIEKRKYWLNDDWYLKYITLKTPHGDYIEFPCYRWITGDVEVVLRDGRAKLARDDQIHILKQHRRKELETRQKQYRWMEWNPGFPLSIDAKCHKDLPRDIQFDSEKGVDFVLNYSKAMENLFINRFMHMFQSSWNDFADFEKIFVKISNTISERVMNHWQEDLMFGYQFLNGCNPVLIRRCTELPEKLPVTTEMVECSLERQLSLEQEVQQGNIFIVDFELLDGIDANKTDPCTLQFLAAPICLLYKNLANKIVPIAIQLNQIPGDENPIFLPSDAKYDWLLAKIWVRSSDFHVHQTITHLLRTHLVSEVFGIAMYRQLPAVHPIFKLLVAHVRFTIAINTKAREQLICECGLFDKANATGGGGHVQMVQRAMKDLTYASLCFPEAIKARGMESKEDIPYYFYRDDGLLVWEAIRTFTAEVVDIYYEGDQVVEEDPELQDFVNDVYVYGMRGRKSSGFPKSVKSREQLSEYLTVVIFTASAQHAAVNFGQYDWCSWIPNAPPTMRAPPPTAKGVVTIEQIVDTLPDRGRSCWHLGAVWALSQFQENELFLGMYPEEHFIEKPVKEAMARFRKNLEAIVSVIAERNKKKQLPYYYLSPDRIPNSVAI
Kind of assay: Inhibition of 5-Lipoxygenase in Human Whole Blood (LTB4, calcium ionophore A23187). In kind it is cell-based. The following applies: 1 μM. The protocol:
1. Inhibition of 5-Lipoxygenase in Human Whole Blood
Blood is obtained in 50-100 ml quantities from male donors. White blood cell counts and differentials are made. Two ml of blood are placed in a 15 ml polypropylene test tube. Test compounds are solubilized in dimethylsulfoxide and diluted in 1:10 in 10% bovine serum albumin in phosphate buffered saline, pH 7.4 resulting in a final dimethylsulfoxide concentration of 0.1% in the blood. Then, solutions of test compounds are added to the blood in a shaking water bath at 37° C. for 10 minutes prior to the addition of 30 μM calcium ionophore (A23 187, Sigma). After ionophore administration, whole blood samples are mixed and incubated for 20 minutes at 37° C. in a shaking water bath. Incubation is terminated by placing samples in an ice bath and immediately adding ethylene glycol-bis-(β-aminoethyl ether)-N,N,N',N'-tetraaceticacid (10 mM). Samples are mixed and centrifuged at 1200 x g for 15 minutes at 4° C. Preparation of samples for evaluation by RIA or ELISA is carried out by the following protocol. Plasma is removed from sample tubes, placed in 15 ml polypropylene test tubes containing 8 ml methanol, and then vortexed to precipitate protein. Samples are stored at -70° C. overnight. The next day, samples are centrifuged at 200 x g for 15 minutes at 4° C. to pellet the precipitate. Samples are dried in a Savant SpeedVac Concentrator, Model SVC 200H, reconstituted to original volume with ice cold RIA or ELISA buffer, and stored at -70° C. until assayed. The assay for eicosanoids (LTB4, TxB2, and PGE2) is performed as described by the manufacturer of the [^3 H]-RIA kit or ELISA kit (LTB4 -Amersham, TxB2 and PGE2 -Caymen Chemical).
The total eicosanoid level in 2 ml of blood is calculated and reported as ng/10^6 neutrophils. Significance is determined by a one-way analysis of variance with least significant difference (LSD) comparisons to control (p≤0.05) and IC50 's (μM) are determined by regression analysis (Finney, 1978). Drug effects are expressed as percent change from control values.

The test system of assay [1] is LT-dependent bronchoconstriction. The assay can be described thus: Inhibition of Bronchoconstriction in Guinea Pigs Induced by Exogenously Administered Antigen. It is filed as in vivo, guinea pig (male). To be noted: Cavia porcellus, 5 min, 5 min post-antigen challenge. The protocol:
4. Inhibition of Brochoconstriction in Guinea Pigs Induced by Exogenously Administered Antigen
Male guinea pigs (Charles River, Wilmington, Mass.) were sensitized 3-4 weeks prior to antigen challenge by administration of 2 i.m. injections of ovalbumin, 1 into each hind limb (35 mg total). Sensitized animals (500-600 g) were fasted overnight prior to experimentation. Conscious animals were then dosed p.o. with drug or vehicle alone (0.5% Tween 80 in H2 O) at the indicated times prior to antigen challenge, or anesthetized animals were dosed i.v. with drug or vehicle alone (DMSO) 5 min prior to antigen challenge. Animals were anesthetized by urethane (2.8 g/kg i.p.). A carotid artery and jugular vein were cannulated to allow for the monitoring of blood pressure and the administration of drugs, respectively. The trachea was then cannulated and connected to a Harvard Apparatus rodent ventilator (S. Natick, Mass.). Spontaneous respiration was abolished by the administration of succinylcholine (2.5 mg/kg i.v.). The animals were then ventilated with room air at a rate of 65 breaths per min. Airway inflation pressure was measured using a Statham pressure transducer (Gould Instruments, Cleveland, Ohio) connected to the tracheal cannula via a side-arm and recorded on a Grass Instruments recorder (Quincy, Mass.). The tidal volume (approximately 10 cc/kg) was adjusted to give a baseline inflation pressure of 8-10 cm H2 O at end inspiration. Animals were then allowed 20 min to stabilize.
Following the stabilization period, animals were given i.v. injections of pyrilamine (5 mg/kg), propranolol (0.1 mg/kg) and indomethacin (10 mg/kg) at 15, 10 and 5 min, respectively, prior to antigen challenge. This pretreatment results in an LT-dependent bronchoconstriction following antigen challenge, which was accomplished by i.v. administration of ovalbumin (10 mg/kg). Only one bronchoconstriction per animal was induced. End-inspiratory inflation pressure (in cm H2 O over baseline) was measured at 5 min post-antigen challenge. A mean value and standard error for the % inhibition of control bronchoconstriction in each drug-treated group was then calculated.

The test system of a further assay is atherosclerotic lesions. To be noted: WHHL rabbits; cited from earlier work.
Another assay deals with LDL. To be noted: cell mediated and Cu^+2 mediated; cited from earlier work.

Results on 3 compounds are retold here after patent publication US5468760A, “Aralkyl-N-hydroxyureas as inhibitors of 5-lipoxygenase and oxidation of low density lipoprotein” (American Home Products Corporation, priority 1993, dated 1995).

Broadly, the inhibition is the share of the control response that was lost under treatment. A word on the inhibition in vivo: it is the change of the read-out against control, counted positive when it falls. Low values mean a weak effect, high ones a strong effect.

In the case of `Cc1oc(-c2ccc(C(F)(F)F)cc2)nc1COc1cccc(CN(O)C(N)=O)c1` [Example 2, 1-Hydroxy-1-[3-[5-methyl-2-(4-trifluoromethyl-phenyl)-oxazol-4-ylmethoxy]-benzyl]-urea], the “% Inhibition LTB4 Synthesis” value in the assay on LTB4 Synthesis was 59%. Besides, the “% Inhibition of LTB4” value with Lipoxygenase (5 mg/kg) worked out at 45%. Besides, the inhibition at 1 µM at 5-Lipoxygenase was 48%.

`NC(=O)N(O)Cc1cccc(OCc2coc(-c3ccc(F)cc3)n2)c1` [Example 3, 1-[3-[2-(4-fluoro-phenyl)-oxazol-4-ylmethoxy]-benzyl]-1-hydroxy-urea] displayed an inhibition in vivo at 10 mg/kg in assay [1] (iv, 10 mg/kg i.v.) of 84%. Further, in assay [1] (po, 25 mg/kg p.o.), the inhibition in vivo at 25 mg/kg is 26%. For the same compound, in the assay with Lipoxygenase (10 mg/kg), the “% Inhibition of LTB4” value turned out to be 85%. Also, the inhibition at 1 µM at 5-Lipoxygenase amounted to 74%.

For the compound `CC(C)(Sc1cc(C(C)(C)C)c(O)c(C(C)(C)C)c1)Sc1cc(C(C)(C)C)c(O)c(C(C)(C)C)c1` [Probucol], the “inhibition of formation of atherosclerotic lesions” value with atherosclerotic lesions is given as “inhibit the formation of atherosclerotic lesions in WHHL rabbits”. Besides, the “inhibition of oxidative modification of LDL” value in the assay with LDL is “inhibits both cell mediated and Cu^+2 mediated oxidative modification of LDL”.
